Experimental data published in patent US11007206B2, “Cyclic boronic acid ester derivatives and therapeutic uses thereof” (Melinta Subsidiary Corp., priority 2012, dated 2021).
Read-outs that look alike come from different tables or passages of the source.

How the values were obtained:
[1] = Plasma pharmacokinetics of Compound I and Biapenem alone or in combination after 1.5 hour intravenous infusion in Sprague-Dawley rats (Example 3); type: in vivo; conditions: for AUC / clearance / half-life: male, Sprague-Dawley, plasma, iv, 20 mg/kg, 1.5 hour intravenous infusion; for AUC / clearance / half-life / Biapenem Calc. Conc. in plasma: rat; for Biapenem Calc. Conc. in plasma: IV infusion
Method: Example 3 provides a summary of the pharmacokinetic studies of Compound I alone or in combination with Biapenem following a single intravenous infusion dose in Sprague-Dawley rats. The pharmacokinetics of 20 mg/kg of Compound I, 20 mg/kg of Biapenem, and 20 mg/kg of Compound I in combination with 20 mg/kg of Biapenem after a 1.5 hour intravenous infusion were discussed.
Biapenem power was purchased from Hisun Pharmaceuticals. Compound I was prepared using the method described in the U.S. Publication 2012/0040932 A1. 20 mg of biapenem was dissolved in 0.1 M NaH2PO4 for a basic stock solution. 100 mg of Compound I was dissolved in 30% 1N NaOH to ˜pH 5.0. For animal studies, these stock solutions were further diluted in 0.9% saline to the appropriate concentration.
The specifications for animals used on this study were as follows: • Species: Rat • Strain: Sprague-Dawley • Gender: Male • Source: Charles River (Hollister, Calif.) • Number of Animals: 3 per study • Body Weight Range: 230-280 g at the start of the study
After acclimation, rats (n=3) were administered single 20 mg/kg intravenous infusion doses of Compound I or Biapenem alone or in combination. Doses were infused over 1.5 hours via an indwelling femoral vein cannula. Plasma (˜0.3 mL) samples were collected from each rat at designated time points up to 24 hours. The time points are shown in section 2.9. Blood samples were centrifuged within 5 min of collection at 12000 g for 5 min to obtain plasma. The plasma samples were stored on −80° C. until analyzed.
Compound I standard curves were prepared in rat plasma from 0.1 to 100 μg/mL. 50 μl aliquots of sample were placed in 1.5 mL microcentrifuge tubes. 20 μl of Compound II (10 μg/mL) was added as internal standard to each sample or standard. 20 μl of 30% trichloroacetic acid was then added to each sample or standard. The samples were mixed using a vortex mixer centrifuged for 10 min at 15,000 RPM using a tabletop centrifuge. The supernatant (approx. 120 μl) was removed and added to 100 μl of water in a 96-well plate. The samples were mixed again using a vortex mixer. 10 μl of each sample was injected onto an HPLC-MS for quantification.
The HPLC-MS conditions for Compound I analysis are as follows: • Column: Phenomenex Fusion-RP or equivalent reversed-phase column, 5 um, 50×2 mm. • Flow rate: 0.6 mL/min. • Mobile phase A: 0.1% formic acid in water. • Mobile phase B: 0.1% formic acid in acetonitrile. • Gradient: 5-60% B in 1.5 min. • Mass spectrometer: Negative ion mode with electrospray ionization. • MS/MS: Compound I-Q1-m/e=296, Q3-m/e=234. • Compound II-Q1-m/e=331, Q3-m/e=201.
Biapenem standard curves were prepared in 50% plasma-50% 1M MOPS buffer, pH=7.4 from 1 to 250 ug/mL. 20 uL of sample or standard was added into a 96-well deep well plate. Then 500 uL of 10% water-45% methanol-45% acetonitrile containing 2 ug/mL of meropenem was used as an internal standard. The plate was vortexed for 15 min. at 3,000 RPM. 50 uL of supernatant was removed and added 300 uL of water. 10 uL of samples were injected onto an HPLC-MS system for quantification.
The HPLC-MS conditions for Biaphenem analysis are as follows: • Column: Supelco Discovery HS F5 or equivalent pentafluorophenyl column, 5 um, 50×2.1 mm. • Flow rate: 0.6 mL/min. • Mobile phase A: 0.1% formic acid in water. • Mobile phase B: 0.1% formic acid in acetonitrile. • Gradient: 5-70% B in 1.9 min. • Mass spectrometer: Positive ion mode with electrospray ionization. • MS/MS: Biapenem-Q1-m/e=350.8, Q3-m/e=110.1. • meropenem-Q1-m/e=384.1, Q3-m/e=141.1
Plasma concentrations were fit using a two compartment IV infusion model (WinNonlinVersion 5.3, Pharsight Corp, Mountain View, Calif.).

P. aeruginosa = experiment: Potency of Biapenem with or without Compound I against P. aeruginosa (Example 4); type: cell-based; conditions: Biapenem compared with meropenem
[2] = system: multi-drug resistant strains of Enterobacteriaceae, including those producing serine carbapenemases; experiment: Checkerboard MIC of Biapenem alone or in combination with Compound I at fixed concentrations (Example 4); type: cell-based
Method: The evaluation of Compound I in combination with the carbapenem antibiotic Biapenem against multi-drug resistant strains of Enterobacteriaceae, including those producing serine carbapenemases were also conducted. Antibiotic potentiation activity of Compound I was studied in checkerboard MIC experiments and time-kill assays. The MICs of Biapenem were […]) against characterized and engineered isolates producing various beta-lactamases, as well as in geographically diverse panels of multi-drug resistant strains of Enterobacteriaceae (including strains that express the most relevant beta-lactamases).

[3] = Sprague-Dawley rats, 20 mg/kg Compound I in combination with 20 mg/kg Biapenem
[4] = Sprague-Dawley rats, administered alone

C[C@@H](O)[C@H]1C(=O)N2C(C(=O)[O-])=C(SC3Cn4cnc[n+]4C3)[C@H](C)[C@H]12 (some centres unmarked) [Biapenem]
Plasma pharmacokinetic parameters, alone versus in combination ([1]; Sprague-Dawley rats, single intravenous infusion): unchanged
AUC [1, 3]: 10100 ± 1130 ng·h/mL
clearance [1, 3]: 33.8 mL/min/kg
half-life [1, 3]: 13.2 ± 0.6 min
AUC [1, 4]: 8950 ± 890 ng·h/mL
clearance [1, 4]: 38.2 mL/min/kg
half-life [1, 4]: 12.6 ± 0.6 min
Biapenem Calc. Conc. in plasma ([1]; sample r.p. # 7.10 (first line), 20 mg/kg Compound I in combination with 20 mg/kg Biapenem): 0.100 µg/mL
Biapenem Calc. Conc. in plasma ([1]; sample r.p. # 7.10 (second line), 20 mg/kg Compound I in combination with 20 mg/kg Biapenem): <0 µg/mL
Biapenem Calc. Conc. in plasma ([1]; sample r.p. # 7.1, 20 mg/kg Compound I in combination with 20 mg/kg Biapenem): 5.61 µg/mL
Biapenem Calc. Conc. in plasma ([1]; sample r.p. # 7.2, 20 mg/kg Compound I in combination with 20 mg/kg Biapenem): 7.98 µg/mL
Biapenem Calc. Conc. in plasma ([1]; sample r.p. # 7.3, 20 mg/kg Compound I in combination with 20 mg/kg Biapenem): 5.08 µg/mL
Biapenem Calc. Conc. in plasma ([1]; sample r.p. # 7.4, 20 mg/kg Compound I in combination with 20 mg/kg Biapenem): 6.47 µg/mL
Biapenem Calc. Conc. in plasma ([1]; sample r.p. # 7.5, 20 mg/kg Compound I in combination with 20 mg/kg Biapenem): 3.03 µg/mL
Biapenem Calc. Conc. in plasma ([1]; sample r.p. # 7.6, 20 mg/kg Compound I in combination with 20 mg/kg Biapenem): 1.89 µg/mL
Biapenem Calc. Conc. in plasma ([1]; sample r.p. # 7.7, 20 mg/kg Compound I in combination with 20 mg/kg Biapenem): 1.22 µg/mL
Biapenem Calc. Conc. in plasma ([1]; sample r.p. # 7.8, 20 mg/kg Compound I in combination with 20 mg/kg Biapenem): 0.103 µg/mL
Biapenem Calc. Conc. in plasma ([1]; sample r.p. # 7.9, 20 mg/kg Compound I in combination with 20 mg/kg Biapenem): 0.0321 µg/mL
Biapenem Calc. Conc. in plasma ([1]; sample r.p. # 8.10 (first line), 20 mg/kg Compound I in combination with 20 mg/kg Biapenem): 0.0587 µg/mL
Biapenem Calc. Conc. in plasma ([1]; sample r.p. # 8.10 (second line), 20 mg/kg Compound I in combination with 20 mg/kg Biapenem): No Peak
Biapenem Calc. Conc. in plasma ([1]; sample r.p. # 8.1, 20 mg/kg Compound I in combination with 20 mg/kg Biapenem): 4.40 µg/mL
Biapenem Calc. Conc. in plasma ([1]; sample r.p. # 8.2, 20 mg/kg Compound I in combination with 20 mg/kg Biapenem): 5.21 µg/mL
Biapenem Calc. Conc. in plasma ([1]; sample r.p. # 8.3, 20 mg/kg Compound I in combination with 20 mg/kg Biapenem): 7.28 µg/mL
Biapenem Calc. Conc. in plasma ([1]; sample r.p. # 8.4, 20 mg/kg Compound I in combination with 20 mg/kg Biapenem): 2.71 µg/mL
Biapenem Calc. Conc. in plasma ([1]; sample r.p. # 8.5, 20 mg/kg Compound I in combination with 20 mg/kg Biapenem): 1.87 µg/mL
Biapenem Calc. Conc. in plasma ([1]; sample r.p. # 8.6, 20 mg/kg Compound I in combination with 20 mg/kg Biapenem): 1.52 µg/mL
Biapenem Calc. Conc. in plasma ([1]; sample r.p. # 8.7, 20 mg/kg Compound I in combination with 20 mg/kg Biapenem): 0.828 µg/mL
Biapenem Calc. Conc. in plasma ([1]; sample r.p. # 8.8, 20 mg/kg Compound I in combination with 20 mg/kg Biapenem): 0.0353 µg/mL
Biapenem Calc. Conc. in plasma ([1]; sample r.p. # 8.9, 20 mg/kg Compound I in combination with 20 mg/kg Biapenem): 0.0393 µg/mL
Biapenem Calc. Conc. in plasma ([1]; sample r.p. # 9.10 (first line), 20 mg/kg Compound I in combination with 20 mg/kg Biapenem): 0.196 µg/mL
Biapenem Calc. Conc. in plasma ([1]; sample r.p. # 9.10 (second line), 20 mg/kg Compound I in combination with 20 mg/kg Biapenem): <0 µg/mL
Biapenem Calc. Conc. in plasma ([1]; sample r.p. # 9.1, 20 mg/kg Compound I in combination with 20 mg/kg Biapenem): 3.86 µg/mL
Biapenem Calc. Conc. in plasma ([1]; sample r.p. # 9.2, 20 mg/kg Compound I in combination with 20 mg/kg Biapenem): 7.34 µg/mL
Biapenem Calc. Conc. in plasma ([1]; sample r.p. # 9.3, 20 mg/kg Compound I in combination with 20 mg/kg Biapenem): 9.20 µg/mL
Biapenem Calc. Conc. in plasma ([1]; sample r.p. # 9.5, 20 mg/kg Compound I in combination with 20 mg/kg Biapenem): 4.90 µg/mL
Biapenem Calc. Conc. in plasma ([1]; sample r.p. # 9.6, 20 mg/kg Compound I in combination with 20 mg/kg Biapenem): 2.16 µg/mL
Biapenem Calc. Conc. in plasma ([1]; sample r.p. # 9.7, 20 mg/kg Compound I in combination with 20 mg/kg Biapenem): 1.69 µg/mL
Biapenem Calc. Conc. in plasma ([1]; sample r.p. # 9.8, 20 mg/kg Compound I in combination with 20 mg/kg Biapenem): 0.0705 µg/mL
Biapenem Calc. Conc. in plasma ([1]; sample r.p. # 9.9, 20 mg/kg Compound I in combination with 20 mg/kg Biapenem): 0.00349 µg/mL
Potency against P. aeruginosa (P. aeruginosa): potency similar to meropenem
MIC ([2]; read-out: Biapenem MICs in the presence of Compound I, in the presence of 0.3 to 5 μg/ml of Compound I, characterized strains of Enterobacteriaceae with serine carbapenemases): < 0.25 µg/mL
MIC ([2]; read-out: Biapenem MICs, Biapenem alone, KPC-producing strains including those expressing multiple classes of enzymes): 8 to 64 µg/mL
MIC ([2]; read-out: Biapenem MICs, Biapenem alone, KPC-producing strains used in the time-kill studies): 16 to 32 µg/mL
MIC90 ([2]; read-out: MIC90 of Biapenem with Compound I): 0.5 µg/mL
